Where no end group is shown, it is not given here. {C12NH2} = aliphatic C12 spacer ending in a primary amine, used to couple the probe to the polymer
Columns and labels:
[1] = tested on: Complementary detection probe; assay: Hybridization of biotinylated detection probe to coated polypropylene microwells (SA-HRP, A655); type: binding; conditions: 50 fmole probe per well, n=3
Protocol: (§1) The DNA-polymer was applied to microplate wells (polypropylene plates from Corning Costar Corporation, Cambridge, Mass.) at 10 pmole (in 0.1 ml solution) per well and incubated for 10-30 minutes. The plates containing DNA polymer solutions were illuminated for 1.5 minutes with a Dymax lamp as described herein except that a filter was used that removes light of wavelengths shorter than 300 nm. A control consisted of oligoDNA capture probe (10 pmole in 0.1 ml 50 mM phosphate buffer, pH 8.5, 1 mM EDTA) that was added to wells, allowed to adsorb for 2.5 hr., and not illuminated. The plates were washed with phosphate buffered saline containing 0.05% Tween 20 in PBS to remove unbound DNA-polymer or control oligoDNA capture probe. […]
(§2) The binding of each detection probe was assayed by subsequently adding a conjugate of streptavidin and horseradish peroxidase (SA-HRP, available from Pierce, Rockford, Ill.) and measuring the activity of the bound HRP. […] The plates were then washed with 0.05% Tween 20 in PBS, followed by addition of peroxidase substrate (TMB Microwell Peroxidase substrate system from Kirkegarrd and Perry Laboratories, Gaithersburg, Md.) and measurement of absorbance at 655 nm on a microplate reader (model 3550, Bio-Rad Labs, Cambridge, Mass.). Since the polypropylene plates were opaque, the reacted substrate solutions were transferred to polystyrene plates to read the absorbance.

[2] = tested on: Noncomplementary detection probe; assay: as above; type: binding; conditions: 50 fmole probe per well, n=3
Protocol: as §1, §2

[3] = tested on: Escherichia coli (ATCC No. 25922); type: cell-based; conditions: in solution
Protocol: (§3) Magainin is a cationic peptide antibiotic that was originally isolated from the skin of Xenopus laevis. It is active against a broad spectrum of pathogens and acts at the surface of the pathogens. The activity of the magainin polymer was evaluated by a standard solution assay, which determined the minimum inhibitory concentration (MIC) of magainin polymer that was required to prevent the growth of bacteria.

[4] = tested on: Staphylococcus epidermidis (ATCC No. 12228); type: cell-based; conditions: in solution
Protocol: as §3

Row | Substance | Hybridization Signals (A655), Complementary detection probe [1] | Hybridization Signals (A655), Noncomplementary detection probe [2] | MIC [3] | MIC [4]
1 | 5′-GTCTGAGTCGGAGCCAGGGCGGCCGCCAACAGCAGGAGCA (DNA GTCTGAGTCGGAGCCAGGGCGGCCGCCAACAGCAGGAGCA; DNA, 5' {C12NH2}, backbone not given here; coupled via 5' amine to photoreactive NOS polymer) [oligo DNA capture probe] | 0.037 ± 0.005 | 0.033 ± 0.001 |  | 
2 | magainin polymer: photoreactive polyacrylamide containing magainin ligand (SEQ ID NO:14) (GIGKFLHSAKKFGKAFVGEIMNSC; not fully specified (residue 24); printed as Gly Ile Gly Lys Phe Leu His Ser Ala Lys Lys Phe Gly Lys Ala Phe Val Gly Glu Ile Met Asn Ser Cys; also: in photoreactive polyacrylamide) |  |  | 50 µg/mL | 50 µg/mL

From patent publication US6514734B1, “Polybifunctional reagent having a polymeric backbone and latent reactive moieties and bioactive groups” (Surmodics, Inc., priority 1997, dated 2003)
